In patent publication US20140322151A1, “Use Of Isosorbide Caprylates/Caprates In Deodorants And Antiperspirants” (CLARIANT INTERNATIONAL LTD, priority 2011, published 2014):

Tested on: axillary body odor
Test: 48-hour sniff test: reduction in body odor after single application of roll-on deodorant base formulation
Type: in vivo, human
Conditions: base formulation I
Protocol: To determine the reduction in body odor, the following base formulations for roll-on deodorants were used.
Various substances active against body odor were incorporated into the base formulations, for example as a further constituent of component D. These were the following substances:
To determine the reduction in body odor, the deodorizing action was carried out in the 48-hour sniff test, for which the procedure is as follows:
20 subjects are selected according to the following criteria: • female and male • at least 18 years old • nonsmokers • clinically healthy • readily detectable auxiliary body odor under both armpits
The two armpits of the subjects are preconditioned over several days, i.e. no kind of antiperspirants and deodorants are used and a pH-skin-neutral, unperfumed liquid soap is used.
On the 20 pretreated subjects, in the left or right axilla, after a sing application of 250-300 mg of the base formulation comprising active substances against body odor in the component D, three olfactory experts evaluate the axillary body odor and product scent as to intensity before and after treatment over a total of 48 hours.
The opposite axilla is not treated and serves as a standard for determining the relative intensity decrease in axillary body odor compared to the axilla which has been treated with the base formulation comprising active substances against body odor in component D.
As well as the starting value directly before the single application (after 0 hours) and the end value 48 hours after the single application, the intensity of the axillary body odor and product scent is also evaluated after 24 hours. The intensity of the body odor or perfume scent was assessed by the three olfactory experts according to the following scale: • 1=not detectable • 2=slightly detectable • 3=detectable • 4=strongly detectable • 5=very strongly detectable
Comparing the intensities of the body odor (or perfume scent) from the treated axilla and the untreated axilla gives, by virtue of the formula below, the relative intensity decrease in axillary body odor as a result of a single application of 250-300 mg of the base formulation comprising active substances against body odor in component D.

SMILES	Result after 24 hours (relative intensity decrease in axillary body odor) (24 hours, 0.1% by weight, 5% by weight propylene glycol as solubilizer)	Result after 48 hours (relative intensity decrease in axillary body odor) (48 hours, 0.1% by weight, 5% by weight propylene glycol as solubilizer)	Result after 24 hours (relative intensity decrease in axillary body odor) (24 hours after single application, 7.6% by weight)	Result after 48 hours (relative intensity decrease in axillary body odor) (48 hours after single application, 7.6% by weight)
Cc1cc(CC(C)CC(C)(C)C)n(O)c(=O)c1 (stereo not shown) [Piroctonol]	15%	10%		
CCCCCCC(O)CO (stereo not shown) [octanediol]			18%	13%
